Here are results for 32 molecules from patent publication US10106553B2, “Substituted benzothiophenyl derivatives as GPR40 agonists for the treatment of type II diabetes” (Janssen Pharmaceutica NV, priority 2016, dated 2018).

By EC50 is commonly meant the concentration at which the effect is half-maximal.

human GPR40, sequence (O14842 whole entry): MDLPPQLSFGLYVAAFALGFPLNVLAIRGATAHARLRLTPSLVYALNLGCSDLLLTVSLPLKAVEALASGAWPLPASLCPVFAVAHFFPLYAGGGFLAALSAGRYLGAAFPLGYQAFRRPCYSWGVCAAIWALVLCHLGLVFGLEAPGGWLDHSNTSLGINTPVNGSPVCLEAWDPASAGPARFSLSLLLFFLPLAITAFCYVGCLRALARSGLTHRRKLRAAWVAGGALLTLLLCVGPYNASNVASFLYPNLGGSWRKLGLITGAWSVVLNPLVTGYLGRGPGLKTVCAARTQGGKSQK

This assay addresses human GPR40 (Homo sapiens (Human), UniProt O14842). The assay can be described thus: GPR40 Calcium Flux Assay.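 Note: calcium flux followed with the Fluo-8 fluorescent dye, intensity read each second over 8 min as compounds were added to the cells.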 The assay is classed as cell-based. The settings on record: transfected HEK293 cells stably expressing human GPR40; Ca2+ mobilization; mean data; read-out: hGPR40 Ca^2+ Assay EC50. (In general: A change in cytosolic calcium serves as a functional read-out for many receptors and channels.)
For the molecule `CC#C[C@@H](Cc1nnn[nH]1)c1ccc(OCc2ccc3scc(-c4cnc(OCCOC)cc4C)c3c2)cc1` [Cpd 21, (2S)-5-(5-((4-(1-(1H-Tetrazol-5-yl)pent-3-yn-2-yl)phenoxy)methyl)benzo[b]thiophen-3-yl)-2-(2-methoxyethoxy)-4-methylpyridine], the EC50 was 51 nM.

As for `CC#C[C@@H](Cc1nnn[nH]1)c1ccc(OCc2ccc3scc(-c4cccc5c4CCC(C)(C)O5)c3c2)cc1` [Cpd 30, (2S)-5-(2-(4-((3-(2,2-Dimethylchroman-5-yl)benzo[b]thiophen-5-yl)methoxy)phenyl)pent-3-yn-1-yl)-1H-tetrazole], the EC50 amounted to 430 nM.

As for `CC#C[C@@H](Cc1nnn[nH]1)c1ccc(OCc2cc3c(-c4ccc(OC)cc4C)csc3cn2)cc1` [Cpd 52, (2S)-5-((4-(1-(1H-Tetrazol-5-yl)pent-3-yn-2-yl)phenoxy)methyl)-3-(4-methoxy-2-methylphenyl)thieno[2,3-c]pyridine], the EC50 stood at 1 nM.

For the molecule `CC#C[C@@H](Cc1nnn[nH]1)c1ccc(OCc2ccc3scc(C4CCCC4)c3c2)cc1` [Cpd 56, (2S)-5-(2-(4-((3-Cyclopentylbenzo[b]thiophen-5-yl)methoxy)phenyl)pent-3-yn-1-yl)-1H-tetrazole], the concentration giving a half-maximal response (EC50) was found to be 54 nM.

As to `CC#C[C@@H](Cc1nnn[nH]1)c1ccc(OCc2ccc3scc(C(C)C)c3c2)cc1` [Cpd 58, (2S)-5-(2-(4-((3-Isopropylbenzo[b]thiophen-5-yl)methoxy)phenyl)pent-3-yn-1-yl)-1H-tetrazole], the EC50 is 100 nM.

As for `CC#C[C@@H](Cc1nnn[nH]1)c1ccc(OCc2ccc3scc(-c4cccc(OCCOC)c4C)c3c2)nc1` [Cpd 42, (2R)-5-(1-(1H-Tetrazol-5-yl)pent-3-yn-2-yl)-2-((3-(3-(2-methoxyethoxy)-2-methylphenyl)benzo[b]thiophen-5-yl)methoxy)pyridine], the concentration giving a half-maximal response (EC50) is 120 nM.

For `CC#C[C@@H](Cc1nnn[nH]1)c1ccc(OCc2ccc3scc(-c4ccc(OC)cc4C)c3n2)cc1` [Cpd 54, (2S)-5-((4-(1-(1H-Tetrazol-5-yl)pent-3-yn-2-yl)phenoxy)methyl)-3-(4-methoxy-2-methylphenyl)thieno[3,2-b]pyridine], the EC50 is 180 nM.

Regarding `CC#C[C@@H](Cc1nnn[nH]1)c1ccc(OCc2ccc3scc(-c4cccc5c4OCCO5)c3c2)cc1` [Cpd 27, (2S)-5-(2-(4-((3-(2,3-Dihydrobenzo[b][1,4]dioxin-5-yl)benzo[b]thiophen-5-yl)methoxy)phenyl)pent-3-yn-1-yl)-1H-tetrazole], the EC50 stood at 61 nM.

Consider `CC#C[C@@H](Cc1nnn[nH]1)c1ccc(OCc2ccc3scc(-c4ccc(OCCOC)cc4C)c3c2)nc1` [Cpd 41, (2R)-5-(1-(1H-Tetrazol-5-yl)pent-3-yn-2-yl)-2-((3-(4-(2-methoxyethoxy)-2-methylphenyl)benzo[b]thiophen-5-yl)methoxy)pyridine], for which the EC50 was determined as 19 nM.

For the molecule `CC#C[C@@H](Cc1nnn[nH]1)c1ccc(OCc2ccc3scc(-c4cc(NS(C)(=O)=O)ccc4C)c3c2)cc1` [Cpd 29, (2S)—N-(3-(5-((4-(1-(1H-tetrazol-5-yl)pent-3-yn-2-yl)phenoxy)methyl)benzo[b]thiophen-3-yl)-4-methylphenyl)methanesulfonamide], the EC50 came to 420 nM.

On to `CC#C[C@@H](Cc1nnn[nH]1)c1ccc(OCc2cc(C)c3scc(CCCC)c3c2)cc1` [Cpd 64, (2S)-5-(2-(4-((3-Butyl-7-methylbenzo[b]thiophen-5-yl)methoxy)phenyl)pent-3-yn-1-yl)-1H-tetrazole], for which the concentration for a half-maximal effect (EC50) amounted to 330 nM.

For the molecule `CC#C[C@@H](Cc1nnn[nH]1)c1ccc(OCc2ccc3scc(-c4ncc(OCCOC)cc4C)c3c2)cc1` [Cpd 26, (2S)-2-(5-((4-(1-(1H-Tetrazol-5-yl)pent-3-yn-2-yl)phenoxy)methyl)benzo[b]thiophen-3-yl)-5-(2-methoxyethoxy)-3-methylpyridine], the EC50 is 34 nM.

Regarding `CC#C[C@@H](Cc1nnn[nH]1)c1ccc(OCc2ccc3scc(-c4ccccc4Cl)c3c2)cc1` [Cpd 32, (2S)-5-(2-(4-((3-(2-Chlorophenyl)benzo[b]thiophen-5-yl)methoxy)phenyl)pent-3-yn-1-yl)-1H-tetrazole], the EC50 was determined as 11 nM.

Turning to `CC#C[C@@H](Cc1nnn[nH]1)c1ccc(OCc2ccc3scc(-c4ccc(OCCC(C)(C)O)cc4C)c3c2)nc1` [Cpd 43, (2R)-4-(4-(5-(((5-(1-(1H-Tetrazol-5-yl)pent-3-yn-2-yl)pyridin-2-yl)oxy)methyl)-benzo[b]thiophen-3-yl)-3-methylphenoxy)-2-methylbutan-2-ol], the EC50 was determined as 130 nM.

For `CC#C[C@@H](Cc1nnn[nH]1)c1ccc(OCc2cc(C)c3scc(C4CCCCC4)c3c2)cc1` [Cpd 66, (2S)-5-(2-(4-((3-Cyclohexyl-7-methylbenzo[b]thiophen-5-yl)methoxy)phenyl)pent-3-yn-1-yl)-1H-tetrazole], the EC50 was 1120 nM.

Turning to `CC#C[C@@H](Cc1nnn[nH]1)c1ccc(OCc2cc(C)c3scc(C4CCCC4)c3c2)cc1` [Cpd 65, (2S)-5-(2-(4-((3-Cyclopentyl-7-methylbenzo[b]thiophen-5-yl)methoxy)phenyl)pent-3-yn-1-yl)-1H-tetrazole], the 50% effective concentration (EC50) was 440 nM.

Consider `CC#C[C@@H](Cc1nnn[nH]1)c1ccc(OCc2ccc3sc(C)c(-c4ccc(OC5CCS(=O)(=O)CC5)cc4C)c3c2)cc1` [Cpd 18, 4-(4-(5-((4-((2S)-1-(1H-Tetrazol-5-yl)pent-3-yn-2-yl)phenoxy)methyl)-2-methylbenzo[b]thiophen-3-yl)-3-methylphenoxy)tetrahydro-2H-thiopyran 1,1-dioxide], for which the EC50 is 80 nM.

`CC#C[C@@H](Cc1nnn[nH]1)c1ccc(OCc2ccc3scc(-c4c(C)cccc4C)c3c2)cc1` [Cpd 20, (2S)-5-(2-(4-((3-(2,6-Dimethylphenyl)benzo[b]thiophen-5-yl)methoxy)phenyl)pent-3-yn-1-yl)-1H-tetrazole]: the EC50 worked out at 24 nM.

With `CC#C[C@@H](Cc1nnn[nH]1)c1ccc(OCc2ccc3scc(-c4ccccc4C)c3c2)nc1` [Cpd 40, (2R)-5-(1-(1H-Tetrazol-5-yl)pent-3-yn-2-yl)-2-((3-(2-methylphenyl)benzo[b]thiophen-5-yl)methoxy)pyridine], the EC50 amounted to 58 nM.

Consider `CC#C[C@@H](Cc1nnn[nH]1)c1ccc(OCc2cnc3scc(-c4ccc(OC)cc4C)c3c2)cc1` [Cpd 50, (2S)-5-((4-(1-(1H-Tetrazol-5-yl)pent-3-yn-2-yl)phenoxy)methyl)-3-(4-methoxy-2-methylphenyl)thieno[2,3-b]pyridine], for which the EC50 stood at 52 nM.

Turning to `CC#C[C@@H](Cc1nnn[nH]1)c1ccc(OCc2ccc3scc(-c4ccccc4Br)c3c2)cc1` [Cpd 4, (2S)-5-(2-(4-((3-(2-Bromophenyl)benzo[b]thiophen-5-yl)methoxy)phenyl)pent-3-yn-1-yl)-1H-tetrazole], the EC50 stood at 20 nM.

As to `CC#C[C@@H](Cc1nnn[nH]1)c1ccc(OCc2cc3c(-c4ccccc4C)csc3cn2)cc1` [Cpd 51, (2S)-5-((4-(1-(1H-Tetrazol-5-yl)pent-3-yn-2-yl)phenoxy)methyl)-3-(2-methylphenyl)thieno[2,3-c]pyridine], the EC50 was found to be 3 nM.

As to `CC#C[C@@H](Cc1nnn[nH]1)c1ccc(OCc2ccc3scc(-c4cccc5c4CCN5C(=O)CC)c3c2)cc1` [Cpd 28, (2S)-1-(4-(5-((4-(1-(1H-tetrazol-5-yl)pent-3-yn-2-yl)phenoxy)methyl)benzo[b]thiophen-3-yl)indolin-1-yl)propan-1-one], the EC50 is 27 nM.

As for `CC#C[C@@H](Cc1nnn[nH]1)c1ccc(OCc2ccc3scc(-c4cc(OCCOC)cnc4C)c3c2)cc1` [Cpd 33, (2S)-3-(5-((4-(1-(1H-Tetrazol-5-yl)pent-3-yn-2-yl)phenoxy)methyl)benzo[b]thiophen-3-yl)-5-(2-methoxyethoxy)-2-methylpyridine], the EC50 came out at 8 nM.

For `CC#C[C@@H](Cc1nnn[nH]1)c1ccc(OCc2ccc3scc(-c4ccccc4C)c3n2)cc1` [Cpd 53, (2S)-5-((4-(1-(1H-Tetrazol-5-yl)pent-3-yn-2-yl)phenoxy)methyl)-3-(2-methylphenyl)thieno[3,2-b]pyridine], the EC50 was 170 nM.

Consider `CC#C[C@@H](Cc1nnn[nH]1)c1ccc(OCc2ccc3scc(-c4nccnc4C)c3c2)cc1` [Cpd 24, (2S)-2-(5-((4-(1-(1H-Tetrazol-5-yl)pent-3-yn-2-yl)phenoxy)methyl)benzo[b]thiophen-3-yl)-3-methylpyrazine], for which the EC50 came out at 550 nM.

Take `CC#C[C@@H](Cc1nnn[nH]1)c1ccc(OCc2ccc3scc(CCC)c3c2)cc1` [Cpd 59, (2S)-5-(2-(4-((3-Propylbenzo[b]thiophen-5-yl)methoxy)phenyl)pent-3-yn-1-yl)-1H-tetrazole]: the EC50 worked out at 130 nM.

As to `CC#C[C@@H](Cc1nnn[nH]1)c1ccc(OCc2ccc3scc(-c4ccc(OC5CCOCC5)cc4C)c3c2)cc1` [Cpd 9, (2S)-5-(2-(4-((3-(2-Methyl-4-((tetrahydro-2H-pyran-4-yl)oxy)phenyl)benzo[b]thiophen-5-yl)methoxy)phenyl)pent-3-yn-1-yl)-1H-tetrazole], the EC50 was 270 nM.

For the molecule `CC#C[C@@H](Cc1nnn[nH]1)c1ccc(OCc2ccc3sc(C(F)(F)F)c(C4CC4)c3c2)cc1` [Cpd 37, (2S)-5-(2-(4-((3-Cyclopropyl-2-(trifluoromethyl)benzo[b]thiophen-5-yl)methoxy)phenyl)pent-3-yn-1-yl)-1H-tetrazole], the EC50 came out at 590 nM.

For `CC#C[C@@H](Cc1nnn[nH]1)c1ccc(OCc2ccc3scc(-c4ccc(C5CCS(=O)(=O)CC5)cc4C)c3c2)cc1` [Cpd 17, (2S)-4-(4-(5-((4-(1-(1H-Tetrazol-5-yl)pent-3-yn-2-yl)phenoxy)methyl)benzo[b]thiophen-3-yl)-3-methylphenyl)tetrahydro-2H-thiopyran 1,1-dioxide], the EC50 was determined as 97 nM.

For the molecule `CC#C[C@@H](Cc1nnn[nH]1)c1ccc(OCc2ccc3scc(-c4ccc(S(C)(=O)=O)cc4C)c3c2)cc1` [Cpd 14, (2S)-5-(2-(4-((3-(2-Methyl-4-(methylsulfonyl)phenyl)benzo[b]thiophen-5-yl)methoxy)phenyl)pent-3-yn-1-yl)-1H-tetrazole], the half-maximal effective concentration (EC50) is 130 nM.

On to `CC#C[C@@H](Cc1nnn[nH]1)c1ccc(OCc2ccc3sccc3c2)cc1` [Cpd 60, (2S)-5-(2-(4-(Benzo[b]thiophen-5-ylmethoxy)phenyl)pent-3-yn-1-yl)-1H-tetrazole], for which the EC50 is 110 nM.
